Experiment: Inhibition of HMG-coA reductase in CD rat liver microsomal-cytosol fraction assessed as inhibition of fatty acid synthesis using [2-14C]acetate as substrate after 90 mins by scintillation counting analysis

Row | SMILES | IC50 [µM]
1 | CC(CCc1ccc(S(=O)(=O)c2ccccc2)cc1)CC(=O)O (configuration not stated) | 80
2 | CC(CCc1ccc(-c2ccccc2)cc1)CC(=O)O (configuration not stated) | 80
3 | CC(CC(=O)O)CC(=O)c1ccc(Sc2ccccc2)cc1 (configuration not stated) | 780
4 | CC(CCc1ccc(Sc2ccccc2)cc1)CC(=O)O (configuration not stated) | 100
5 | CC(CCc1ccc(Oc2ccccc2)cc1)CC(=O)O (configuration not stated) | 80
6 | CC(CCc1ccc2c(c1)-c1ccccc1S2(=O)=O)CC(=O)O (configuration not stated) | 30
7 | CC(CCc1ccc2oc3ccccc3c2c1)CC(=O)O (configuration not stated) | 1600

Next, values leading:

Row | IC50 [µM] | SMILES
8 | 1200 | CC(CC(=O)O)CC(=O)c1ccc(-c2ccccc2)cc1 (configuration not stated)
9 | 430 | CC(CC(=O)O)CC(=O)c1ccc2oc3ccccc3c2c1 (configuration not stated)
10 | 860 | CC(CCc1ccc2sc3ccccc3c2c1)CC(=O)O (configuration not stated)
11 | 2100 | CC(CC(=O)O)CC(=O)c1ccc(Oc2ccccc2)cc1 (configuration not stated)
12 | 930 | CC(CC(=O)O)CC(=O)c1ccc2sc3ccccc3c2c1 (configuration not stated)
